In patent US20220242870A1, “HETEROCYCLE-FUSED PYRIMIDINE DERIVATIVE AND USE THEREOF” (VORONOI Inc., priority 2019, published 2022):

Columns and labels:
[1] = tested on: MV4-11 cells; assay: AML cell proliferation inhibitory activity (CellTiter-Glo); assay type: cell-based; details: Homo sapiens, 72 hours
Protocol: The inhibitory activities of the example compounds according to the present invention on the proliferation of acute myeloid leukemia (AML) cells expressing the FLT3 mutant gene were evaluated. Specifically, RS4;11 and MV4-11 cells as acute myeloid leukemia cells expressing the FLT3 mutant gene were cultured in RPMI-1640 (Invitrogen) adding 10% FBS. The cells were seeded into each well of a clear bottom white 96-well plate (Corning) at 3000 to 5000 cells 24 hours before compound treatment. The compound was diluted in DMSO (diluted each three-fold, to a total of 12 concentrations) and injected at 0.5 μL each so as to be a final concentration of 0.3 nM to 50 μM. After 72 hours of the compound treatment, they were treated with CellTiter-Glo Luminescent Cell Viability assay (Promega) and stored at room temperature for 10 minutes, and luminescence intensities were measured with a reader (SynergyNeo, Biotek) to count viable cells. Each experiment was performed three times repeatedly. The result values were calculated as the cell growth rate (%) compared to the control treated with the solvent. The graph was derived using the GraphPad Prism program (version 5.0), the GI50 (nM) values were calculated, and the results were shown in Table 3 below.

[2] = molecular target: T1, human GST-HPK1 (1-346) (Homo sapiens, UniProt Q92918); assay: HPK1 enzyme inhibitory ability (ADP-Glo kinase assay); assay type: biochemical; details: human GST-HPK1 3 ng, ATP 3 uM, 25° C. 2 hours
T1 construct: purified human GST-HPK1 (1-346, Signalchem) enzyme; purchased Signalchem
T1 sequence (Q92918 1-346): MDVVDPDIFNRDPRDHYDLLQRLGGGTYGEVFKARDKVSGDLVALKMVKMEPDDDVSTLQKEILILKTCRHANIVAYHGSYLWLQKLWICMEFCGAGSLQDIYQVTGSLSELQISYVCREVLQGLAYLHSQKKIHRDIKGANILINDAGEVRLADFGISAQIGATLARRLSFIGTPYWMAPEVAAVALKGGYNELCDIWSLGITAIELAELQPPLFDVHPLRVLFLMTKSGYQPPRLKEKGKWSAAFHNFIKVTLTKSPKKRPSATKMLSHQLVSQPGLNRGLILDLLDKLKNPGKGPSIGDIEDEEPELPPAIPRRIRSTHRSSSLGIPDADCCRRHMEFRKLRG
Outline: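 Human GST-HPK1(1-346), 3 ng, reacted with 3 uM ATP and specific substrate in 40 mM Tris-HCl pH 7.4, 20 mM MgCl2, 0.5 mg/mL BSA, 50 uM DTT for 2 h at 25° C. ADP-Glo luminescence read; IC50 (nM) relative to untreated solvent control.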

[3] = molecular target: T2, human FLT3-ITD enzyme (Homo sapiens, UniProt P36888); assay: FLT3 enzyme inhibitory ability (ADP-Glo kinase assay); assay type: biochemical; details: human FLT3-ITD enzyme 10 ng, ATP 10 μM, 25° C. 1 hour
T2 sequence (P36888 1-993): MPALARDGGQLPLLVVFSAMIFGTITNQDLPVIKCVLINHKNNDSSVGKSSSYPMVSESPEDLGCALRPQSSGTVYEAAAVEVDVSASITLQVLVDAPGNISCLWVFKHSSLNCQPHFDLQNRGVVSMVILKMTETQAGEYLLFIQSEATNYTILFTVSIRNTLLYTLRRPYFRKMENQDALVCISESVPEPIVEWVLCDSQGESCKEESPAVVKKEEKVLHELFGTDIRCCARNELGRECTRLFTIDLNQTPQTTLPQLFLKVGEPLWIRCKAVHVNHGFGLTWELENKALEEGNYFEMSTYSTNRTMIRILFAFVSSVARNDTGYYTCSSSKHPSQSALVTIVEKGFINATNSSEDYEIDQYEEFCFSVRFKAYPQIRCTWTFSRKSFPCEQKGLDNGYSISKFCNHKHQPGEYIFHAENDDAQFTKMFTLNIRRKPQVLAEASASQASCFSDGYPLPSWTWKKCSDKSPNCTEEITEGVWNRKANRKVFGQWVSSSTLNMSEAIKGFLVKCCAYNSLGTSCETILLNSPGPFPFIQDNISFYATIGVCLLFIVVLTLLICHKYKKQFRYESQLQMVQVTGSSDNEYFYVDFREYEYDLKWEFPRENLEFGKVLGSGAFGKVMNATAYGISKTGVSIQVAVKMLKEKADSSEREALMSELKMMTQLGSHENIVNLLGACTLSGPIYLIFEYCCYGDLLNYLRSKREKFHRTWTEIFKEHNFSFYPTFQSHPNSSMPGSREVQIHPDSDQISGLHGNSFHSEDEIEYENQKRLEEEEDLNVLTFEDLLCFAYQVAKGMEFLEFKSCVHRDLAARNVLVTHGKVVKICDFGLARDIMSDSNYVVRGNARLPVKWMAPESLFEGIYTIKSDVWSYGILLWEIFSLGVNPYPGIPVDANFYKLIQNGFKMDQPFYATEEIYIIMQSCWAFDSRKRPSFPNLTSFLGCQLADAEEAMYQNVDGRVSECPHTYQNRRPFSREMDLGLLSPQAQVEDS
Outline: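 Purified human FLT3-ITD (10 ng) with 10 μM ATP and specific substrate in 40 mM Tris-HCl pH 7.4, 20 mM MgCl2, 0.5 mg/mL BSA, 50 μM DTT, 1 h at 25 °C. ADP formation read by ADP-Glo luminescence; IC50 (nM) versus solvent-treated control.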

[4] = tested on: MCF-7 cells; assay: Breast cancer cell line proliferation inhibitory activity (CellTiter-Glo 2.0); assay type: cell-based; details: Homo sapiens, MCF7, 120 hours
Outline: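 MCF-7 cells exposed to a 12-point, 3-fold dilution series (final 0.00005–10 μM) for 120 h at 37 °C. Viability read by CellTiter-Glo 2.0 luminescence, expressed as percent of vehicle-treated cells. GI50 (nM) derived from the curves.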

GI50 [1] [nM] | IC50 [2] [nM] | IC50 [3] [nM] | GI50 [4] [nM] | SMILES
> 500 | > 500 | > 500 | > 500 | CCc1cc(Nc2nc(N3N=CCC3c3ccccc3)c3sccc3n2)cc(OCCN2CCC(O)CC2)c1 (stereo not shown) [Example 16, 1-(2-(3-ethyl-5-((4-(5-phenyl-4,5-dihydro-1H-pyrazol-1-yl)thieno[3,2-d]pyrimidin-2-yl)amino)phenoxy)ethyl)piperidin-4-ol]
> 500 | > 500 | 250 to 500 | > 500 | COc1cc(Nc2nc(N3OCC[C@H]3c3ccccc3)c3sccc3n2)ccc1N1CCC(N2CCN(C)CC2)CC1 [Example 57, (S)-N-(3-methoxy-4-(4-(4-methylpiperazin-1-yl)piperidin-1-yl)phenyl)-4-(3-phenylisoxazolidin-2-yl)thieno[3,2-d]pyrimidin-2-amine]
> 500 | > 500 | ≥ 250 | > 500 | CN1CCN(c2ccc(Nc3nc(N4OCC[C@H]4c4ccccc4)c4sccc4n3)cc2)CC1 [Example 59, (S)-N-(4-(4-methylpiperazin-1-yl)phenyl)-4-(3-phenylisoxazolidin-2-yl)thieno[3,2-d]pyrimidin-2-amine]
> 500 | > 500 | 250 to 500 | > 500 | COc1cc(Nc2nc(N3N=CCC3c3ccccc3)c3cc[nH]c3n2)ccc1N1CCC(N2CCN(C)CC2)CC1 (stereo not shown) [Example 69, N-(3-methoxy-4-(4-(4-methylpiperazin-1-yl)piperidin-1-yl)phenyl)-4-(5-phenyl-4,5-dihydro-1H-pyrazol-1-yl)-7H-pyrrolo[2,3-d]pyrimidin-2-amine]
> 500 | > 500 | 250 to 500 | > 500 | COc1cccc([C@@H]2CCON2c2nc(Nc3ccc(N4CCN(C)CC4)cc3)nc3[nH]ccc23)c1 [Example 75, (S)-4-(3-(3-methoxyphenyl)isoxazolidin-2-yl)-N-(4-(4-methylpiperazin-1-yl)phenyl)-7H-pyrrolo[2,3-d]pyrimidin-2-amine]
> 500 | ≥ 250 | ≥ 250 | > 500 | CN1CCN(c2ccc(Nc3nc(N4OCC[C@H]4c4cccc(F)c4)c4cc[nH]c4n3)cc2)CC1 [Example 76, (S)-4-(3-(3-fluorophenyl)isoxazolidin-2-yl)-N-(4-(4-methylpiperazin-1-yl)phenyl)-7H-pyrrolo[2,3-d]pyrimidin-2-amine]
250 to 500 | ≥ 250 | ≥ 250 | > 500 | CN1CCN(c2ccc(Nc3nc(N4OCC[C@H]4c4cccs4)c4cc[nH]c4n3)cc2)CC1 [Example 77, (S)-N-(4-(4-methylpiperazin-1-yl)phenyl)-4-(3-(thiophen-2-yl)isoxazolidin-2-yl)-7H-pyrrolo[2,3-d]pyrimidin-2-amine]
> 500 | ≥ 250 | ≥ 250 | > 500 | CN1CCN(c2ccc(Nc3nc(N4OCC[C@H]4c4cccnc4)c4cc[nH]c4n3)cc2)CC1 [Example 78, (S)-N-(4-(4-methylpiperazin-1-yl)phenyl)-4-(3-(pyridin-3-yl)isoxazolidin-2-yl)-7H-pyrrolo[2,3-d]pyrimidin-2-amine]
≥ 250 | ≥ 250 | ≥ 250 | > 500 | CN(C)C1CCN(c2ccc(Nc3nc(N4OCC[C@H]4c4ccccc4)c4cc[nH]c4n3)cc2)CC1 [Example 83, (S)-N-(4-(4-(dimethylamino)piperidin-1-yl)phenyl)-4-(3-phenylisoxazolidin-2-yl)-7H-pyrrolo[2,3-d]pyrimidin-2-amine]
≥ 250 | ≥ 250 | 250 to 500 | > 500 | COc1cc(Nc2nc(N3OCC[C@H]3c3ccccc3)c3cc[nH]c3n2)ccc1N1CCC(N2CCN(C)CC2)CC1 [Example 87, (S)-N-(3-methoxy-4-(4-(4-methylpiperazin-1-yl)piperidin-1-yl)phenyl)-4-(3-phenylisoxazolidin-2-yl)-7H-pyrrolo[2,3-d]pyrimidin-2-amine]
250 to 500 | ≥ 250 | 250 to 500 | > 500 | OCCN1CCN(C2CCN(c3ccc(Nc4nc(N5OCC[C@H]5c5ccccc5)c5cc[nH]c5n4)cc3)CC2)CC1 [Example 89, (S)-2-(4-(1-(4-((4-(3-phenylisoxazolidin-2-yl)-7H-pyrrolo[2,3-d]pyrimidin-2-yl)amino)phenyl)piperidin-4-yl)piperazin-1-yl)ethan-1-ol]
> 500 | > 500 | ≥ 250 | > 500 | COc1cc(C(=O)N2CCOCC2)ccc1Nc1nc(N2OCC[C@H]2c2ccccc2)c2cc[nH]c2n1 [Example 96, (S)-(3-methoxy-4-((4-(3-phenylisoxazolidin-2-yl)-7H-pyrrolo[2,3-d]pyrimidin-2-yl)amino)phenyl)(morpholino)methanone]
> 500 | ≥ 250 | ≥ 250 | > 500 | CCN(CC)CCCOc1c(C)cc(Nc2nc(N3OCC[C@H]3c3ccccc3)c3cc[nH]c3n2)cc1C [Example 101, (S)-N-(4-(3-(diethylamino)propoxy)-3,5-dimethylphenyl)-4-(3-phenylisoxazolidin-2-yl)-7H-pyrrolo[2,3-d]pyrimidin-2-amine]
> 500 | ≥ 250 | ≥ 250 | > 500 | c1ccc([C@@H]2CCON2c2nc(Nc3ccc4c(c3)CNCC4)nc3[nH]ccc23)cc1 [Example 104, (S)-N-(4-(3-phenylisoxazolidin-2-yl)-7H-pyrrolo[2,3-d]pyrimidin-2-yl)-1,2,3,4-tetrahydroisoquinolin-7-amine]
250 to 500 | ≥ 250 | ≥ 250 | > 500 | CN1CCc2ccc(Nc3nc(N4OCC[C@H]4c4ccccc4)c4cc[nH]c4n3)cc2C1 [Example 105, (S)-2-methyl-N-(4-(3-phenylisoxazolidin-2-yl)-7H-pyrrolo[2,3-d]pyrimidin-2-yl)-1,2,3,4-tetrahydroisoquinolin-7-amine]
≥ 250 | ≥ 250 | ≥ 250 | > 500 | CN1CCc2cc(Nc3nc(N4OCC[C@H]4c4ccccc4)c4cc[nH]c4n3)ccc2C1 [Example 109, (S)-2-methyl-N-(4-(3-phenylisoxazolidin-2-yl)-7H-pyrrolo[2,3-d]pyrimidin-2-yl)-1,2,3,4-tetrahydroisoquinolin-6-amine]
